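Here, GI50 denotes the concentration required for 50% inhibition of growth. Definition used: TGI = concentration required for complete inhibition of growth.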
Columns and labels:
Assay in all cases: NCI tumour cell line growth inhibition, 384-well format
SR leukemia = tested on: SR leukemia
NCI-H322M lung = tested on: NCI-H322M lung
SF-295 CNS = tested on: SF-295 CNS
COLO 205 colon = tested on: COLO 205 colon
SK-MEL-2 melanoma = tested on: SK-MEL-2 melanoma
NCI-H522 lung = tested on: NCI-H522 lung
UACC-257 melanoma = tested on: UACC-257 melanoma
HT29 colon = tested on: HT29 colon
UO-31 renal = tested on: UO-31 renal
LOX IMVI melanoma = tested on: LOX IMVI melanoma
BT-549 breast = tested on: BT-549 breast
MDA-MB-435 melanoma = tested on: MDA-MB-435 melanoma
SN12C renal = tested on: SN12C renal

## CC1=C(c2cccc(O)c2)[C@H](c2ccc(OCCN3CC(CF)C3)cc2)Oc2ccc(O)cc21
SR leukemia
  GI50: 1.79 µM
  TGI: 3.23 µM
NCI-H322M lung
  GI50: 6.69 µM
  TGI: 19.6 µM
SF-295 CNS
  GI50: 11.6 µM
  TGI: 23.9 µM
COLO 205 colon
  GI50: 3.09 µM
  TGI: 8.69 µM
SK-MEL-2 melanoma
  GI50: 1.96 µM
  TGI: 3.78 µM
NCI-H522 lung
  GI50: 11.1 µM
  TGI: 23.1 µM
UACC-257 melanoma
  GI50: 1.64 µM
  TGI: 3.01 µM
HT29 colon
  GI50: 1.94 µM
  TGI: 3.58 µM
UO-31 renal
  GI50: 9.8 µM
  TGI: 21.5 µM
LOX IMVI melanoma
  GI50: 1.77 µM
  TGI: 3.34 µM
BT-549 breast
  GI50: 3.24 µM
  TGI: 12.6 µM
MDA-MB-435 melanoma
  GI50: 10.7 µM
  TGI: 22.6 µM
SN12C renal
  GI50: 7.94 µM
  TGI: 20.6 µM

## Cc1cc([N+](=O)[O-])c(NS(=O)(=O)c2cccc(C(=O)O)c2)cc1-c1cccnc1
SR leukemia
  GI50: > 61.5 µM
  TGI: > 100 µM
NCI-H322M lung
  GI50: > 100 µM
  TGI: > 100 µM
SF-295 CNS
  GI50: > 100 µM
  TGI: > 100 µM
COLO 205 colon
  GI50: > 100 µM
  TGI: > 100 µM
SK-MEL-2 melanoma
  GI50: > 100 µM
  TGI: > 100 µM
NCI-H522 lung
  GI50: > 100 µM
  TGI: > 100 µM
UACC-257 melanoma
  GI50: > 100 µM
  TGI: > 100 µM
HT29 colon
  GI50: > 100 µM
  TGI: > 100 µM
UO-31 renal
  GI50: > 100 µM
  TGI: > 100 µM
LOX IMVI melanoma
  GI50: > 100 µM
  TGI: > 100 µM
BT-549 breast
  GI50: > 100 µM
  TGI: > 100 µM
MDA-MB-435 melanoma
  GI50: > 100 µM
  TGI: > 100 µM
SN12C renal
  GI50: > 100 µM
  TGI: > 100 µM

Reference: PubChem BioAssay (NCI)
